{"source": "patent US20250295799A1", "about": "“ANTIBODY-DRUG CONJUGATES TARGETING GLYPICAN-3 AND METHODS OF USE” (Zymeworks BC Inc., priority 2022, published 2025)", "key": {"[1]": {"tested_on": "Hep G2 cells (high GPC3-expressing)", "test": "Internalization by flow cytometry (quenched AF488)", "format": "cell-based", "conditions": "antibody 10 nM", "procedure": "(§1) Cells were seeded at 50,000 cells/well in 48-well plates and incubated overnight under standard culturing conditions (37° C./5% CO2) in Gibco™ Dulbecco's Modified Eagle Media (DMEM) (Thermo Fisher Scientific, Waltham, MA; Cat. No. 11995040) with 10% Fetal Bovine Serum (FBS) (Thermo Fisher Scientific, Waltham, MA; Cat. No. 12483020) for Hep G2 cells, and Gibco™ William's E Medium, GlutaMAX™ Supplement (Thermo Fisher Scientific, Waltham, MA; Cat. No. 32551020) with 10% FBS (Thermo Fisher Scientific, Waltham, MA; Cat. No. 12483020) for JHH-7 cells. Coupled antibodies were added to cells the following day at 10 nM or at 100 nM and incubated under standard culturing conditions for 5-24 hours to allow for internalization. Following incubation, cells were dissociated, washed, and surface AF488 fluorescence was quenched using an anti-AF488 antibody (Life Technologies, Carlsbad, CA; Cat. No. A-11094) at 100 nM for 30 minutes at 4° C. Quenched AF488 fluorescence (internalized fluorescence) was detected by flow cytometry on a BD LSRFortessa™ Cell Analyzer (BD Biosciences, Franklin Lake, NJ) with 1,000 minimum events collected per well."}, "[2]": {"tested_on": "HepG2 cells (GPC3-high)", "test": "On-cell binding by flow cytometry", "conditions": "24 h at 4 °C", "procedure": "Briefly, cells were seeded at 50,000 cells/well in V-bottom 96-well plates and treated with antibody for 24 hours at 4° C. to prevent internalization. […] Following incubation and washing, fluorescence was detected by flow cytometry on a BD LSRFortessa™ Cell Analyzer (BD Biosciences, Franklin Lake, NJ) with 1,000 minimum events collected per well."}, "[3]": {"tested_on": "JHH-7 cells (GPC3-high)", "test": "On-cell binding by flow cytometry", "conditions": "24 h at 4 °C", "procedure": "Briefly, cells were seeded at 50,000 cells/well in V-bottom 96-well plates and treated with antibody for 24 hours at 4° C. to prevent internalization. […] Following incubation and washing, fluorescence was detected by flow cytometry on a BD LSRFortessa™ Cell Analyzer (BD Biosciences, Franklin Lake, NJ) with 1,000 minimum events collected per well. AF647/APC-A GeoMean (fluorescence signal geometric mean, proportional to anti-Human AF647 binding) in live cell population was plotted against antibody concentration using GraphPad Prism Version 9 (GraphPad Software, San Diego, CA). The Bmax, Curve Hill Slope (h) and Kd values were derived from the “Specific binding with Hill slope” nonlinear regression curve fit in GraphPad Prism Version 9.\nThe on-cell binding capabilities of light chain (LC)-modified M3-H18L6 antibody constructs were assessed on JHH-7 (hepatocellular carcinoma; GPC3-high) and JHH-5 (hepatocellular carcinoma; GPC3-mid) by flow cytometry as described below. […] The assay was carried out as described in Example 13.\nBriefly, plasma stress was carried out by incubating M3-H18L6 LC-modified antibodies in mouse plasma (BioIVT, Westbury, NY; Cat. No. MSE00PL38NC-0103070) for 14 days in a 37° C./5% CO2 incubator. […] Following incubation and washing, fluorescence was detected by flow cytometry on a BD LSRFortessa™ Cell Analyzer (BD Biosciences, Franklin Lake, NJ) with 1,000 minimum events collected per well. AF647/APC-A GeoMean (fluorescence signal geometric mean, proportional to anti-Human AF647 binding) in live cell population was plotted against antibody concentration using GraphPad Prism Version 9 (GraphPad Software, San Diego, CA). […] Following incubation, cells were dissociated, washed, and surface AF488 fluorescence was quenched using an anti-AF488 antibody (Life Technologies, Carlsbad, CA; Cat. No. A-11094) at 100 nM for 30 minutes at 4° C. Quenched AF488 fluorescence (internalized fluorescence) was detected by flow cytometry on a BD LSRFortessa™ Cell Analyzer (BD Biosciences, Franklin Lake, NJ) with 1,000 minimum events collected per well."}, "[4]": {"tested_on": "JHH-7 cells (high GPC3-expressing)", "test": "Internalization by flow cytometry (quenched AF488)", "format": "cell-based", "conditions": "antibody 10 nM", "procedure": "as §1\nas §1, with “CO2)” for “CO2) in Gibco™ Dulbecco's Modified Eagle Media (DMEM) (Thermo Fisher Scientific, Waltham, MA; Cat. No. 11995040) with 10% Fetal Bovine Serum (FBS) (Thermo Fisher Scientific, Waltham, MA; Cat. No. 12483020) for Hep G2 cells, and”, “12483020).” for “12483020) for JHH-7 cells.”, “5” for “10 nM or at 100”, “24” for “5-24”, “well. […]” for “well.”"}}}
{"substance": "palivizumab [v22277 (palivizumab)]", "values": [{"measurement": "Internalized fluorescence, fold increase over palivizumab, Hep G2, 5 hours", "setting": "[1]; 5 hours", "result": 1.0, "unit": "fold"}, {"measurement": "Internalized fluorescence, fold increase over palivizumab, Hep G2, 24 hours", "setting": "[1]; 24 hours", "result": 1.0, "unit": "fold"}, {"measurement": "Kd", "setting": "[2]", "result": "> 60", "unit": "nM"}, {"measurement": "Kd", "setting": "[3]", "result": "> 60", "unit": "nM"}, {"measurement": "Internalized fluorescence, fold increase over palivizumab, JHH-7, 5 hours", "setting": "[4]; 5 hours", "result": 1.0, "unit": "fold"}, {"measurement": "Internalized fluorescence, fold increase over palivizumab, JHH-7, 24 hours", "setting": "[4]; 24 hours", "result": 1.0, "unit": "fold"}]}
